According to ChEMBL document CHEMBL3232955, “Impact of stereospecific intramolecular hydrogen bonding on cell permeability and physicochemical properties” (J Med Chem, 2014):
Converted amounts (≈) assume the structure as drawn.

What was measured:
[1] = Solubility of the compound in phosphate buffered saline at pH 7.4 containing 1% DMSO after 18 hrs by UPLC-MS method; format: physicochemical; details: phosphate buffered saline with 1% DMSO
[2] = Lipophilicity, log D of the compound by shake flask technique; format: physicochemical; details: octanol/water
[3] = Dissociation constant, pKa of the compound for N15, 3'-amine group by dip probe absorption spectroscopy; format: physicochemical
[4] = Dissociation constant, pKa of the compound for N34 pyridine group by dip probe absorption spectroscopy; format: physicochemical
[5] = Efflux ratio of apparent permeability from basolateral to apical side to apical to basolateral side of human Caco2 cells; format: ADME, cell-based; details: Caco-2

Row | SMILES | solubility kinetic at 18 h [1] | logD [2] | pKa [3] | pKa [4] | efflux ratio [5]
1 | C[C@H](CO)N1C(=O)c2cccc(NC(=O)c3ccncc3)c2O[C@@H](CN(C)Cc2ccc(Oc3ccccc3)cc2)[C@H]1C | 86 µM (≈ 49.9 µg/mL) | 3.4 | 7.07 | 2.98 | 0.47
2 | C[C@@H]1[C@H](CN(C)Cc2ccc(Oc3ccccc3)cc2)Oc2c(NC(=O)c3ccncc3)cccc2C(=O)N1[C@@H](C)CO | 87 µM (≈ 50.5 µg/mL) | 3.4 | 7.16 | 2.97 | 0.48
3 | C[C@H](CO)N1C(=O)c2cccc(NC(=O)c3ccncc3)c2O[C@H](CN(C)Cc2ccc(Oc3ccccc3)cc2)[C@@H]1C | 98 µM (≈ 56.9 µg/mL) | 3.4 | 7.16 | 2.98 | 0.36
4 | C[C@H](CO)N1C(=O)c2cccc(NC(=O)c3ccncc3)c2O[C@H](CN(C)Cc2ccc(Oc3ccccc3)cc2)[C@H]1C | 1 µM (≈ 0.581 µg/mL) |  | 6.08 | 2.77 | 0.31
5 | C[C@@H](CO)N1C(=O)c2cccc(NC(=O)c3ccncc3)c2O[C@H](CN(C)Cc2ccc(Oc3ccccc3)cc2)[C@@H]1C | 93 µM (≈ 54 µg/mL) | 3.4 | 7.08 | 2.98 | 0.41
6 | C[C@@H]1[C@@H](CN(C)Cc2ccc(Oc3ccccc3)cc2)Oc2c(NC(=O)c3ccncc3)cccc2C(=O)N1[C@@H](C)CO | 1 µM (≈ 0.581 µg/mL) |  | 6.18 | 2.77 | 0.1

The next lines start with the values.

Row | solubility kinetic at 18 h [1] | logD [2] | pKa [3] | pKa [4] | efflux ratio [5] | SMILES
7 | 1 µM (≈ 0.581 µg/mL) |  | 6.08 | 2.76 | 0.36 | C[C@@H](CO)N1C(=O)c2cccc(NC(=O)c3ccncc3)c2O[C@@H](CN(C)Cc2ccc(Oc3ccccc3)cc2)[C@@H]1C
8 | 2 µM (≈ 1.16 µg/mL) |  | 6.14 | 2.76 | 0.42 | C[C@H](CO)N1C(=O)c2cccc(NC(=O)c3ccncc3)c2O[C@@H](CN(C)Cc2ccc(Oc3ccccc3)cc2)[C@@H]1C
